“Also recorded” adds a separate entry of the source.
Key:
SHOX2:GFP+ cells = assay: Epigenetic library screen for SHOX2:GFP+ cells; assay type: cell-based, human; conditions: condition 8, compound added at day 7, after 14 days of differentiation
Description: To quantify and purify SAN-like cells using this directed differentiation protocol, a dual knock-in SHOX2:GFP; MYH6:mCherry reporter line was created using CRISPR/Cas-based gene-targeting techniques (FIG. 6b). Immunofluorescence and FACS analyses confirmed the success of the protocol for generating putative hPSC-SAN cells, as condition 8 maximizes generation of SHOX2:GFP^+ cells (FIG. 1c, d). The sorted GFP^+ cells were enriched approximately 4000-fold for SHOX2 transcript levels compared to GFP^− cells (FIG. 1e), and most of the GFP^+ cells co-express ISL1 and HCN4, proteins closely associated with the development and function of SAN cells (FIG. 6b). To further enhance production of GFP^+ cells, we considered that SAN development may also be controlled epigenetically and performed an unbiased screen using a library of known epigenetic modulatory compounds. Cells were differentiated using condition 8 with compounds added at day 7 (FIG. 1f and FIG. 6c).
Pacemaker and cardiomyocyte induction. Differentiation was initiated 72 hours after plating when the culture was approximately 80% confluent. Step 1: Cells were differentiated with 1.5 μM CHIR99021 (CHIR, Stem-RD, Ch), 20 ng/mL BMP4 (B) and 20 ng/mL Activin A (AA) in RPMI (Cellgro) supplemented with B27 minus insulin, 2 mM GlutaMAX, 1× NEAA and 1× Pen/Strep for 3 days (RB27-INS). […]

murine SAN = assay: Ex vivo murine atrial explants (SAN cell death, contraction rhythmicity)
Procedure: FIG. 15. […] Quantification of contraction rhythmicity of explants was calculated by the COV as described above.
FIG. 16. […] Quantification of contraction rhythmicity of explants was calculated by the COV as described above.
Thus, we used an ex vivo model to document the direct effect of Doxorubicin and Physcion on the murine SAN. Whole, intact atrial explants were incubated with 1 μM doxorubicin or 1 uM doxorubicin+20 μM Physcion for 3 hrs.

[1] = system: A549 human epithelial lung cancer cells; assay: Chemotherapeutic effect on A549 cells in culture; assay type: cell-based; conditions: 72 hrs
Procedure: FIG. 17. […] We tested the effects of Physcion and Physcion+Doxorubicin on A549 human epithelial lung cancer cells grown in culture. 5×10^4 cells were treated with varying doses of Doxorubicin and Physcion for 72 hrs.

A549 xenograft tumors = assay: A549 xenograft mouse model; assay type: in vivo; conditions: IP once a week for two weeks; for tumor burden / growth (tumor wt. and volume), single agent: 4 mg/kg
Procedure: FIG. 18. […] We tested the effects of Doxorubicin and Physcion using an A549 xenograft mouse model. Mice with A549 xenograft tumors were treated with vehicle, Doxorubicin, Physcion, or Doxorubicin plus Physcion. Doxorubicin and Physcion treatment was administered by IP injection once a week for two weeks, at a concentration of 4 mg/kg wt for both compounds.

hPSC-SAN cells = assay: Chemical screen and validation for rescue of DOXO toxicity in hPSC-SAN cells; assay type: cell-based, human
Procedure: The fold change was calculated by dividing the percentage of cleaved caspase-3^+ cells in GFP^+ or mCherry^+ cells in the DOXO-treated condition by the percentage of cleaved caspase-3^+ cells in GFP^+ or mCherry^+ cells in the DMSO-treated condition (n=10); b, Sensitivity of day 30 hiPSC-SAN cells derived from 48 hiPSC lines upon DOXO treatment. […] The fold change was calculated by dividing the percentage of cleaved caspase-3^+ cells in ISL1^+ cells in the DOXO-treated condition by the percentage of cleaved caspase-3^+ cells in ISL1^+ cells in the DMSO-treated condition. […] Data were normalized to non-DOXO treated cells (n=4). h, Quantification of cell toxicity on hPSC-SAN cells derived from sensitive iPSC lines after co-treatment with DOXO and either 10 μM physcion (n=3) or DMSO (n=4). *p<0.05 **p<0.01. t-test. Data are mean±s.e.m. Data were normalized to non-DOXO treated cells.
Day 35 cells were treated for 3 days with DOXO and small molecules.
1472 compounds were tested consisting of FDA-approved drugs and natural products. Hit targets were selected based on a reduced percent ratio of GFP^+ cleaved caspase-3^+/GFP^+ cells (FIG. 11a). The compounds that decreased the cell death rate by more than two-fold of the standard deviation below the average of DMSO-treated samples were selected as primary hits. […]

[2] = system: hESC-derived ventricular myocytes (hESC-V); assay: Ca2+-flux assay (calcium imaging) in hESC-derived ventricular myocytes; assay type: cell-based, human; conditions: cardiomyocyte (hESC-V) cultures, 1 μM ivabradine, recordings after 5 min vs baseline
Procedure: (§1) FIG. 2. Functional characterization of hPSC-SAN cells. a, Immunofluorescent co-staining of GFP with pacemaker-associated transcription factors (ISL1, TBX5 and NKX2.5) and ion channels (HCN4, Cav3.1, Cav1.3 and Cx30.2) in cells differentiated to day 30 or day 60. Scale bar=200 μM. b, qRT-PCR analysis using samples from GFP^+ (G+) or mCherry^+ (Ch+) cells at day 25 or day 45. n=3 independent experiments. Fold-change was normalized to undifferentiated hESC. c, Schematic for co-culture of hESC-derived ANs expressing eYFP-channelrhodopsin-2 with either hPSC-SAN or hESC-V; d, Immunofluorescence (left) and electron microscopy images (right) of hESC-AN and hPSC-SAN after 12 weeks of co-culture. Scale bar: 100 μM and 1 μM, respectively; e, Basal release of catecholamine was analyzed using an ELISA kit for AN alone, AN+hES-SAN and AN+hES-V conditions after 8 weeks of co-culture. n=3 independent experiments. f, Representative image of averaged action potentials recorded from an individual hPSC-SAN (left) and distribution (right) of dV/dtmax, APD30 and APD90 recorded used day 30 cells; g, Quantitative analysis of day 30 hPSC-SAN function in response to 1 μM ivabradine. Fold change in calcium transient amplitude (deltaF/F0) of hPSC-SAN or hESC-V cells before and after treatment with ivabradine (n=22 for hESC-SAN and =17 for hESC-V). *p<0.05 **p<0.01. t-test. Data are mean±s.e.m. […]

hESC-SAN cells = assay: Ca2+-flux assay (calcium imaging) in hESC-SAN cells; assay type: cell-based, human; conditions: 1 μM ivabradine, recordings after 5 min vs baseline
Procedure: as §1

HCN4+ SAN cells = conditions: mouse, in vivo
Procedure: FIG. 12. […] Immunofluorescence of intact atria isolated from Doxorubicin (two IP injections of 10 mg/kg at 3 day intervals) treated mice euthanized 9 days after initial treatment. Cell death (caspase 3, green) was analyzed in either myocardial (cTroponin, blue) or SAN tissue (HCN4, red).
FIG. 13. […] Contractions of intact atria isolated from vehicle (left panels) or Doxorubicin (right panels) treated mice (30 sec recordings;) x axis=[…]. […] Quantification of contraction rhythmicity of hearts was calculated by the coefficient of variance (COV)=std dev of peak to peak contraction time/average peak to peak contraction time.
C57BL/6 mice were treated with 20 mg/kg Doxorubicin by intraperitoneal injection.

[3] = system: SHOX2:GFP+ hPSC-SAN cells; assay: DOXO toxicity, cleaved caspase3+ cells, in hPSC-SAN cells; assay type: cell-based, human; conditions: 0.16 μM DOXO, 3 days, day 35 pacemaker-like cells
Procedure: (§2) FIG. 4. Pharmacogenetics and drug discovery for doxorubicin-mediated acute cell toxicity using hPSC-SAN cells. a, Relative cell toxicity of hESC-SAN and hESC-V cells upon DOXO treatment based on immunostaining of antibody against cleaved-caspase3. The fold change was calculated by dividing the percentage of cleaved caspase-3^+ cells in GFP^+ or mCherry^+ cells in the DOXO-treated condition by the percentage of cleaved caspase-3^+ cells in GFP^+ or mCherry^+ cells in the DMSO-treated condition (n=10); b, Sensitivity of day 30 hiPSC-SAN cells derived from 48 hiPSC lines upon DOXO treatment. 48 hiPSC lines were differentiated toward SAN-like cells and split into two equal samples, which were treated with 0.16 μM doxorubicin or DMSO for 3 days. The fold change was calculated by dividing the percentage of cleaved caspase-3^+ cells in ISL1^+ cells in the DOXO-treated condition by the percentage of cleaved caspase-3^+ cells in ISL1^+ cells in the DMSO-treated condition. […] Data are mean±s.e.m. Data were normalized to non-DOXO treated cells.

[4] = cited from earlier work
[5] = system: SHOX2:GFP-; MHC6:mCherry+ cardiomyocytes; conditions: 0.16 μM DOXO, 3 days, day 35 cardiomyocytes
Procedure: as §2

[6] = system: hPSC-SAN cells differentiated from 48 distinct iPSC lines; assay: DOXO sensitivity of hPSC-SAN cells differentiated from 48 iPSC lines (cleaved caspase-3 / ISL1 staining); assay type: cell-based, human; conditions: 0.16 μM DOXO, 3 days
Procedure: FIG. 4. […] Data are mean±s.e.m. Data were normalized to non-DOXO treated cells.
To identify genetic variation that associates with the sensitivity of pacemaker cells to DOXO-induced toxicity, we performed an unbiased screen using a library of hPSC-SAN cells differentiated from 48 distinct iPSC lines. Cells differentiated for 35 days were treated with 0.16 μM DOXO for 3 days. Due to the lack of a robust antibody to SHOX2, an antibody recognizing ISL1 that is co-expressed with SHOX2:GFP (FIG. 2a), was used to identify hPSC-SAN cells that co-stain for cleaved caspase-3, as an assay for cytotoxicity. […] We identified 14 “high-sensitive” iPSC lines that generate hPSC-SAN cells displaying DOXO-induced apoptosis rates greater than 4-fold compared to DMSO-treated cells (FIG. 4b). To test if this platform can be applied toward in vitro pharmacogenomics, the iPSC clones were sequenced at several genomic regions harboring known SNPs associated with increased DOXO-mediated cardiotoxicity, including rs1056892, rs2229774 and rs885004 (in or near the genes CBR3, RARG and SLC28A3, respectively). 10 out of the 14 high-sensitive iPSC lines harbored one of these 3 SNPs (FIG. 4c). All 4 of the lines carrying the risk allele of rs1056892 generated hPSC-SAN cells with more than 4-fold increased toxicity. This is consistent with findings that CBR3 is expressed in heart tissue and functions for drug metabolism.

[7] = 1 uM doxorubicin+20 μM Physcion, 3 hrs

Nc1cc(F)ccc1NC(=O)c1ccc(CNC(=O)/C=C/c2cccnc2)cc1 [chidamide]
percentage of GFP+ cells (SHOX2:GFP+ cells): ~50%

COc1cc(O)c2c(c1)C(=O)c1cc(C)cc(O)c1C2=O [Physcion, physcion]
doxorubicin-induced SAN cell death of explants (murine SAN; [7]): blocks
doxorubicin-induced arrhythmic contractility of explants (murine SAN; [7]): blocks
contraction rhythmicity of explants (COV) (murine SAN; 1.5 μM Doxorubicin+20 μM Physcion): regained rhythmic contractions with minimal variance in periods between contractions
chemotherapeutic effects of Physcion alone [1]: does not exhibit chemotherapeutic effects
effect on chemotoxic effects of Doxorubicin ([1]; Physcion as high as 50 μM, varying doses of Doxorubicin): did not block; also recorded: did not inhibit
tumor burden / growth (tumor wt. and volume), single agent (A549 xenograft tumors): did not affect tumor growth
effect on chemotherapeutic effects of Doxorubicin in vivo (A549 xenograft tumors; Physcion plus Doxorubicin, 4 mg/kg each): did not block; also recorded: did not inhibit the chemotherapeutic effects of Doxorubicin
effective dose to rescue DOXO-induced cell toxicity (hPSC-SAN cells; hPSC-SAN cells, 0.16 μM DOXO, 3 days): 10 to 20 µM
toxicity levels in hPSC-SAN cells from sensitive iPSC lines (hPSC-SAN cells; three most sensitive iPSC lines, DOXO with 10 μM Physcion vs without): significant decrease in toxicity levels

COc1cc2c(cc1OC)CC(=O)N(CCCN(C)C[C@H]1Cc3cc(OC)c(OC)cc31)CC2 [ivabradine, Ivabradine]
contractions and calcium activity [2]: no significant difference
contractions and calcium activity (hESC-SAN cells): significant reduction

COc1cccc2c1C(=O)c1c(O)c3c(c(O)c1C2=O)C[C@@](O)(C(=O)CO)C[C@@H]3O[C@H]1C[C@H](N)[C@H](O)[C@H](C)O1 [Doxorubicin]
variance in the time between contractions (coefficient of variance, COV) (HCN4+ SAN cells): significantly higher variance in the time between contractions
SAN cell death in atrial explants (murine SAN; 1 μM doxorubicin, 3 hrs): localized SAN cell death
contractility of atrial explants (murine SAN; 1 μM doxorubicin, 3 hrs): irregular contractility
contraction rhythmicity of explants (COV) (murine SAN; 1.5 μM Doxorubicin): irregular contractions marked by significantly higher variance in the time between contractions
cytotoxicity (percentage of cleaved caspase3+ cells) [3]: significant cytotoxicity
sub-clinical systolic dysfunction ([4]; of treated patients): ~40%
DOXO-induced cardiomyopathy ([4]; treated patients): 10-20%
tumor burden / growth (tumor wt. and volume), single agent (A549 xenograft tumors): reduction in tumor wt. and volume
cell death (percentage of cleaved caspase3+ cells) [5]: no significant increase in cell death
DOXO-induced apoptosis rate compared to DMSO-treated cells ([6]; 14 high-sensitive iPSC lines): greater than 4 fold
increased toxicity ([6]; all 4 lines carrying the risk allele of rs1056892): greater than 4 fold
percentage of cleaved caspase3+ ISL1 cells following DOXO ([6]; hPSC-SAN cells from all 48 iPSC lines): at least some increase

Reference: patent publication US20230000924A1, “COMPOSITIONS AND METHODS FOR GENERATION OF SINOATRIAL NODE-LIKE CELLS AND THEIR USE IN DRUG DISCOVERY” (Cornell University, priority 2019, published 2023)
